Test results published in US9087996B2, “Fluorine-containing aromatic compound and production method thereof” (Asahi Glass Company, Limited, priority 2012, dated 2015).

Assays:
[1] = assay type: physicochemical
Description: In order to investigate applicability of the compound (o) obtained in Example 7-c to a wet process, a solubility test of the compound in various solvents was conducted. In addition, a solubility test of pentacene was also conducted as reference.
Specifically, 20 mg of a sample was weighed and it was visually judged whether it dissolves in 10 g of a solvent at room temperature (0.2% by weight).

Compound | melting point [°C] | Solubility in Chloroform [1] | Solubility in Cyclohexane [1] | Solubility in Hexane [1] | Solubility in THF [1] | Solubility in Toluene [1] | Solubility in o-Dichlorobenzene [1]
FC(F)(F)c1c2ccc(C#Cc3ccccc3)cc2c(C(F)(F)F)c2ccc(C#Cc3ccccc3)cc12 [Compound (b1), 2,6-bis(phenylethynyl)-9,10-bis(trifluoromethyl)anthracene] | 215 to 215.5 | – | – | – | – | – | –
c1ccc2cc3cc4cc5ccccc5cc4cc3cc2c1 [Pentacene, pentacene, reference compound] | – | No | No | No | No | No | No
FC(F)(F)c1c2cc3ccccc3cc2c(C(F)(F)F)c2cc3ccccc3cc12 [Compound (o)] | – | Yes | Yes | Yes | Yes | Yes | Yes
COc1ccc(C#Cc2ccc3c(C(F)(F)F)c4ccccc4c(C(F)(F)F)c3c2)cc1 [Compound (a1), 2-[(4-methoxyphenyl)ethynyl]-9,10-bis(trifluoromethyl)anthracene] | 123.5 to 124.1 | – | – | – | – | – | –
